Data reported in patent US6586460B1, “Heteroarotinoids containing urea or thiourea linker” (The Board of Regents for Oklahoma State University, priority 2001, dated 2003).

Tests used:
[1] = tested on: SK-OV-3; test: Growth inhibition assay (SRB); type: cell-based; details: 10 μM, three-day treatment, Table I
Method in brief: (§1)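 Cells plated at 2000-4000/well, then treated next day with compound at final 1, 2, 3, 4, 5, 7 and 10 μM for 3 days. Density by TCA fixation and sulforhodamine B staining with OD read-out, in triplicate. Percent growth inhibition = (1 − treated OD/DMSO-control OD) × 100.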

[2] = tested on: SiHa; test: Growth inhibition assay (SRB); type: cell-based; details: 10 μM, three-day treatment, Table I
Method in brief: as §1

[3] = tested on: HT-3; test: Growth inhibition assay (SRB); type: cell-based; details: 10 μM, three-day treatment, Table I
Method in brief: as §1

[4] = tested on: SW962; test: Growth inhibition assay (SRB); type: cell-based; details: 10 μM, three-day treatment, Table I
Method in brief: as §1

[5] = tested on: OVCAR-3 cells; test: In vivo tumor xenograph; set-up: species or system athymic nu/nu mice; details: 10 mg/kg/day p.o.; for tumor growth (average tumor volume, FIG. 1): 5 days/week, beginning 35 days after implantation; for sizes of the tumors compared with control group treated with sesame oil alone: after 15 days of treatment, t-test P<0.05
Protocol: Thirty female athymic nu/nu mice (Charles Rivers Laboratories, Wilmington, Mass.) were housed in a laminar flow room under sterile conditions at 83-85° F. The mice were quarantined for one week prior to the beginning of the study and were allowed access to autoclaved food (Purina 5001 mouse/rat sterilized diet, St. Louis, Mo.) and water ad libitum. Then OVCAR-3 cells in log phase growth were harvested by trypsinization, resuspended in RPMI culture medium, and centrifuged at 3000 rpm for 10 min. The pellets were then resuspended in RPMI culture medium at a concentration of 7×10^6 cells/mL before implantation into mice. Animals were injected with 3.5×10^6 cells into right scapular region with a 24-gauge needle/1 mL tuberculin syringe (Becton Dickinson, Rutherford, N.J.). Twenty four hours after tumor implantation, animals were randomized into four treatment groups of 5 animals each. Retinoids were administered daily p.o. beginning 35 days after tumor implantation with a 20-gauge intragastric feeding tube (Popper & Sons, New Hyde Park, N.Y.), 5 days/week, at doses of 10 mg/kg/day in 0.1 mL of super refined sesame oil (Corda, Inc., Parisppany, N.J.). Tumors were measured with calipers weekly, and tumor volumes were calculated using the formula: volume=length×width×heigth. Animal weights and clinical signs of overall health status and cutaneous toxicities were recorded weekly. Agents 11 and 13 were evaluated against the 4-HPR standard. FIG. 1 illustrates the overall changes in tumor volumes found in the mice in these experiments. […] The animals were monitored daily for signs of toxicity, such as skin eczema and bone fractures, but none were observed. This is added evidence that these heteroarotinoids are strong candidates for cancer chemotherapy.

[6] = tested on: SW962 vulvar carcinoma cultures; test: Apoptosis assay, Annexin-V-Flous/propidium iodide flow cytometry; type: cell-based
Excerpt: Optimal chemotherapeutic agents will selectively kill tumor cells by inducing a natural form of cell death which is called “apoptosis”. Toxic agents kill both normal and tumor cells via a nonspecific process known as “necrosis”. To differentiate between apoptosis and necrosis in heteroarotinoid-treated cultures, a flow cytometric assay was employed. Treated cultures were stained with Annexin-V-Flous and propidium iodide, and the intensities of the stains are quantitated with Flow Cytometry. The Annexin-V-Flous binds to phosphatidyl serine on the exterior of apoptosing cells. This assay is specific for apoptosing cells because phosphatidyl serine is normally located on the inner membrane of the cells, a situation whereby the serine derivative cannot be bound by Annexin. However, during apoptosis, phosphatidyl serine is translocated to the outer membrane. The Flous moiety emits a signal that can be detected and quantitated by Flow Cytometry. In contrast, propidium iodide is taken up by necrotic cells that have lost membrane integrity. In this study, t-RA was used as a control for the non-apoptotic retinoids, and 4-HPR was used as a control for the apoptotic retinoids.

[7] = tested on: RARE reporter in the SW962 vulvar carcinoma cell line; test: RARE reporter transactivation through endogenous receptors; type: cell-based
Protocol: Both heteroarotinoids 11 and 13 resemble 4-HPR in that all are potent inducers of apoptosis. Since 4-HPR acts through a receptor-independent mechanism, agent 11 was evaluated for ability to transactivate a RARE reporter through endogenous receptors in the SW962 vulvar carcinoma cell line. […] Nelson, S. Subramanian, G. M. Weerasekare, J. B. Gale, M. K. Patterson, Jr., B. Wang, W. Wang, S. Lu, T. C. Rowland, P. DiSivestro, C. Lindamood, D. L. Hill, and K. D. Berlin]. No induction of the retinoid receptors was observed although 9-cis-RA casued a 4 to 10 fold induction of RARE-driven transcription in the same experiment with the SW962 cell line.

[8] = tested on: retinoic acid receptors; test: CV-1 co-transfection assay; type: cell-based

SMILES	Percentage growth inhibition, SK-OV-3 (Ovarian HPV− Null p53) [1]	Percentage growth inhibition, SiHa (Cervix HPV+ Wt p53) [2]	Percentage growth inhibition, HT-3 (Cervix HPV− Mut p53) [3]	Percentage growth inhibition, SW962 (Vulva HPV− Mut p53) [4]	tumor growth (average tumor volume, FIG. 1) [5]	sizes of the tumors compared with control group treated with sesame oil alone [5]	Percentage of induction of apoptosis in SW962 vulvar carcinoma cultures ([6]; Days 0)	Percentage of induction of apoptosis in SW962 vulvar carcinoma cultures ([6]; Days 1)	Percentage of induction of apoptosis in SW962 vulvar carcinoma cultures ([6]; Days 2)	Percentage of induction of apoptosis in SW962 vulvar carcinoma cultures ([6]; Days 3)	Percentage of induction of apoptosis in SW962 vulvar carcinoma cultures ([6]; Days 4)	Percentage of induction of apoptosis in SW962 vulvar carcinoma cultures ([6]; Days 7)	apoptosis in the SW962 vulvar cell, comparison in words ([6]; Table IV)	induction of RARE-driven transcription [7]	transactivation of each of the retinoic acid receptors [8]
CCOC(=O)c1ccc(NC(=O)Nc2ccc3c(c2)C(C)(C)CC(C)(C)S3)cc1 [heteroarotinoid 13]	94%	66%	85%	96%	inhibited tumor growth	significantly smaller									
CC1(C)CC(C)(C)c2cc(NC(=S)Nc3ccc([N+](=O)[O-])cc3)ccc2S1 [heteroarotinoid 11]	100%	72%	82%	98%	inhibited tumor growth	significantly smaller	3%	6.11%	11.42%	39.06%	48.79%	47.5%	superior to the clinically used agent 4-HPR	No induction	No transactivation
